Experimental data from a melting point compilation (Tetko et al.; mined from patent text by program, amines drawn as free bases though some values may be those of a salt).

| Structure (SMILES) | melting point [°C] |
| --- | --- |
| C=CCOC1C(OC2C(COCc3ccccc3)OC(OC)C(OCc3ccccc3)C2OCc2ccccc2)OC(CO)C(O)C1OCc1ccccc1 (stereo not given) | 119 to 120 |
| COC(=O)c1cc2ccc(C)cc2n1C(C)=O | 51 to 53 |
| NC(=S)c1cn(C2OC(CO)C(O)C2O)nn1 (stereo not given) | 152 to 154 |
| CCCCC(=NNC(=O)c1ccccc1)c1ccncc1 | 142 |
| O=[N+]([O-])c1oc2c(CC(CO)CO)cccc2c1-c1ccccc1 | 166 to 168 |
| Cc1c(Cl)cc([N+](=O)[O-])c(NC(C)C)c1[N+](=O)[O-] | 69 to 73 |
| Cc1cccc(C)c1N(C(C)CCl)S(C)(=O)=O (stereo not given) | 126 to 128 |
| COc1ccc(-c2ccc(C(C)=O)cc2[N+](=O)[O-])cc1 | 124 to 126 |
| COc1ccc(/C(=C\C=C\C(=O)O)c2ccccc2)cc1 | 184 to 185 |
| O=[N+]([O-])c1ccc(C=Cc2nccn2Cc2ccccn2)o1 | 141 to 142 |
| Brc1ccc2c3nc4ccccc4[nH]c-3nc2c1 | > 300 |
| Nc1cccnc1Nc1cccc(-c2cccnc2)c1 | 159 to 160 |
| O=C1COCCN1c1ccc(NC[C@H](O)CCl)cc1 | 138 to 139 |
| CCCCS(=O)(=O)Oc1ccc(CCOc2ccc(/C=C(\OCC)C(=O)O)cc2OC)cc1 | 94 |
| CC(C)(C)OC(=O)NCC(=O)Nc1c(C(=O)CC(=O)Nc2nccs2)cccc1C(F)(F)F | 166 |
| CCOC(=O)c1oc2ccc([N+](=O)[O-])cc2c1OC | 90 to 90.4 |
| COc1cc([N+](=O)[O-])cnc1Cl | 40 to 41 |
| CCN(c1nc(C)cc(-c2ccccc2Cl)n1)c1c(Br)cc(N(C)C)cc1OC | 131 to 132 |
| Cc1oc(-c2ccccc2)nc1COc1ccc(CON=C(CCC(=O)O)c2ccc(F)cc2)cc1 | 139 to 140 |
| N#CCCNC(=S)C1=CC(CF)(CF)Oc2ccc(C(F)(F)C(F)(F)C(F)(F)F)cc21 | 94 to 95 |
| CC(O)(CCCl)c1ccc(-c2ccc(F)cc2)cc1 (stereo not given) | 78 to 79 |
| CCOC(=O)c1cc(Cc2ccccc2)c(O)c2ccccc12 | 79 to 80 |
| Cn1ncnc1COc1nn2c(-c3ccccc3F)nncc2c1-c1cccs1 | 196 to 197 |
| CCOCCOC(=O)C(=O)Nc1nc(-c2ccc(OC)cc2OC)cs1 | 118 to 120 |
| Cc1cc2c(cc1C)C(C(F)(F)F)(C(F)(F)F)c1cc3c(cc1O2)Oc1cc(C)c(C)cc1C3(C(F)(F)F)C(F)(F)F | 242 to 243 |
| O=S(=O)(Nc1cccc(CCOCc2cccc(-c3ccc(F)cc3)n2)c1)C(F)(F)F | 71 to 73 |
| CN(NC(=O)c1c(F)cccc1Cl)S(C)(=O)=O | 135 to 136 |
| CCCCc1nc2c(N)nc3ccccc3c2n1CCCNS(C)(=O)=O | 239 to 241 |

| Structure (SMILES) | melting point [°C] |
| --- | --- |
| CCCCOc1c(CNC(=O)OC(C)(C)C)n(CC(C)C)c(=O)c2ccc(-c3nc(C(=O)O)cs3)cc12 | 195 to 196 |
| CC1(C)CCc2c(-c3ccco3)nc3sc4c(NCc5ccccn5)ncnc4c3c2C1 | 233 |
| COc1ccc(-c2nc3ccccc3nc2-c2ccc(OC)cc2)cc1 | 148 |
| C=C=C[C@]12CCC(=O)C=C1C(=O)C[C@@H]1[C@@H]2CC[C@]2(C)C(=O)CC[C@@H]12 | 187 to 190 |
| COC(=O)COc1ccc(OC)cc1C=O | 74 to 75 |
| CCC[C@@H](C)C(C(=O)O)C(=O)O | 95 |
| Cc1cc(=O)[nH]c2ccc(Br)cc12 | 292 to 299 |
| NC(=O)c1cnn2c1NCC=C2c1cccnc1 | 182 to 184 |
| CC1(C)C2CCC1(CCCC(=O)O)CC2 | 72 to 73 |
| CCc1nc2c(N)nc3ccccc3c2n1CC1(O)CCSCC1 | > 250 |
| CC(=O)Oc1cc(Oc2ccccc2)c(OC(C)=O)c2ccccc12 | 137 to 138 |
| CCOC(=O)C=Cc1ccc(N[C@@H](CCC(N)=O)C(=O)O)cc1 | 192 to 193 |
| COC12CC(C)(c3nnc(-c4cncc(Br)c4)[nH]3)CN(C)C1Cc1c[nH]c3cccc2c13 (stereo not given) | 163 to 168 |
| COc1cc(C(=O)CS(=O)(=O)N(C)C)c(N)cc1Cl | 59 to 62 |
| O=C(O)CCOc1cccc2c1Cc1sc(S(=O)(=O)CCC(c3ccccc3)c3ccccc3)nc1-2 | 215 to 218 |
| CCNc1ncn(-c2ccccc2C)c(=O)n1 | 208 to 210 |
| Cc1ccccc1-n1c(CSc2ncnc3[nH]cnc23)nc2cccc(Cl)c2c1=O | 214 |
| Cc1cccc2c(=O)[nH]c(C3CCN(C)CC3)cc12 | 196 to 198 |
| COc1ccc([C@H](C)NC(=O)COc2cc(C(F)(F)F)c3c(-c4ccccc4)nn(C)c3n2)cc1 | 172 to 174 |
| COC(=O)Cc1cc(OC)ccc1C(C)=O | 74 to 76 |
| CC(C)(C)OC(=O)C1CSC(C2CC3CCC2C3)N1C(=O)CNC(=O)Nc1cccc(CC(=O)O)c1 (mixture of isomers) | 115 |
| CC(=O)c1ccc2c(c1)OC(C(N)=O)CO2 (stereo not given) | 212 |
| COC(=O)CC[C@@H](CF)NC(=O)OCc1ccccc1 | 46 to 48 |
| COc1ccc(-c2nn(CC(C)=O)c(=O)cc2-c2ccncc2)cc1 | 68.3 to 70.6 |
| C[C@H](COc1ccc(F)cc1)Nc1nc(Cl)nc2c1ncn2[C@@H]1O[C@H](CO)[C@@H](O)[C@H]1O | 172 to 173 |
| Cc1ccc(-c2ccccc2-c2nnnn2-c2ccc([N+](=O)[O-])cc2)cc1 | 164 to 166 |
| Cc1noc([C@@H](Cc2ccccc2)NC(=O)[C@@H](Cc2ccc3ccccc3c2)NC(=O)[C@@H]2CCCN(C(=O)OC(C)(C)C)C2)n1 | 198 to 200 |

Now from value to compound:

| melting point [°C] | Structure (SMILES) |
| --- | --- |
| 143 to 144 | CC(C)CCS(=O)(=O)NC(=O)/C=C/c1cc(OC2CCOCC2)nn1Cc1ccc(Cl)cc1Cl |
| 158 | Cc1ccc(-c2c(Cl)nc3ncnn3c2NC2CCCC2)cc1 |
| 94.4 to 97.3 | CCCCc1nc(C)c(CC(=S)N2CCCC2)c(=O)n1Cc1ccc(-c2ccccc2-c2nnn[nH]2)cc1 |
| 266 to 267 | COc1ccc(Cc2n[nH]c3c2c(=O)n(-c2ccccc2)c2ncccc32)c(OC)c1 |
| 209 to 212 | O=C(O)c1cc([N+](=O)[O-])cc2c1CCCC2 |
| 106 to 108 | COc1ccc(C=Cc2ccc(CBr)c(Cl)c2)c(Cl)c1 |
| 181 to 182 | Cc1ccc(-c2c(Cl)ncn2-c2ccc(S(C)(=O)=O)cc2)cc1Cl |
| 146 to 147 | O=C1C2=C(CCCC2)C(SSC2C3=C(CCCC3)C(=O)N2c2ccc(Cl)cc2F)N1c1ccc(Cl)cc1F (stereo not given) |
| 169 to 170 | NC(=O)CNC(=O)c1ccnc(-c2cccc3cc(Cc4cccc(C(F)(F)F)c4)sc23)c1F |
| 242 to 244 | N#CCc1cc(O)cc2cc(-c3ccc(O)c(F)c3)oc12 |
| 215 to 220 | O=C(O)c1cc2cc(-c3ccsc3)ccc2o1 |
| 128 to 131 | CN1CCCC1=NC(=O)Nc1ccc(C(F)(F)F)cc1 |
| 174 to 176 | CCOC(=O)c1c2n(c3c(F)c(N4CCC(NC(=O)OC(C)(C)C)C4)c(F)cc3c1=O)C(C)S2 (stereo not given) |
| 160 to 165 | CCCC1(CCC)c2cc(-c3ccc(Br)s3)ccc2-c2ccc(-c3ccc(Br)s3)cc21 |
| 224 to 226 | CC(=O)NCCNc1nc(Nc2ccc(Cl)cc2)ncc1[N+](=O)[O-] |
| 89.6 | CC(=O)N1CCN2C(=O)N(c3cc(Cl)cc(Cl)c3)C(=O)C2(Cc2ccc(Br)cc2)C1 (stereo not given) |
| 178 to 179 | CCCCOc1c(C(=O)O)n(CC2CC2)c(=O)c2ccc(OCc3ccccc3)cc12 |
| 154 to 155 | CCCCOc1ccc2[nH]c3c([N+](=O)[O-])ccc(Cl)c3c(=O)c2c1 |
| 198 to 199 | CC(C)Cn1c(=O)n(C)c(=O)c2cc(Cn3cnc4ccccc43)sc21 |
| 240 | CC(=O)Nc1n[nH]c2cc(Cl)ccc12 |

| melting point [°C] | Structure (SMILES) |
| --- | --- |
| 229 to 233 | O=C1N(c2c(Cl)cccc2Cl)Cc2cnc(NCC3CCCCC3)nc2N1c1ccccc1 |
| 274 to 275 | O=C1CCC(c2ccc3c(c2)NC(=O)CO3)=NN1 |
| 227 | O=C1CC(c2cccc(-n3ccnc3)c2)=Nc2cc(CO)c(C#Cc3ccccc3)cc2N1 |
| 133 to 135 | O=C1CCC(N2C(=O)c3ccc(CNCc4cc5ccccc5o4)cc3C2=O)C(=O)N1 (stereo not given) |
| 182 to 184 | COc1c(C2CCN(CCCCNC(=O)c3ccc(-c4ccc(C#N)s4)cc3)CC2)ccc2c1CCCC2 |
| 95 to 96 | CCCCCCCCCCCCc1ccc(COc2cc(C(=O)O)nc3ccc(C)cc23)cc1 |
| 90 to 95 | CCc1nc2c(C)cc(C)nc2n1Cc1ccc2oc(-c3ccccc3NS(=O)(=O)C(F)(F)F)c(Br)c2c1 |
| 270 | CC(C)c1ccc2[nH]c(=O)c(C(=O)c3ccccc3)c(O)c2c1 |
| 210 to 211 | O=C1C(=O)c2ccc(Br)cc2C2=C1SCC1(CCN(Cc3ccc(F)cc3)CC1)O2 |
| 178 to 180 | N#Cc1nn(-c2c(Cl)cc(-c3ccc(C(F)(F)F)cc3)cc2Cl)c(N)c1Br |
| 141 to 143 | COc1cc2nc(N3CCCN(C(=O)C=Cc4cccnc4)CC3)nc(N)c2cc1OC |
| 85.5 | C=CCc1c(OCCCOc2ccc3c(c2)OC(C(=O)O)CC3)ccc(C(C)=O)c1OC (stereo not given) |
| 107 to 108 | COc1cc(C=O)ccc1OCC(O)CN1CCC(c2noc3cc(F)ccc23)CC1 (stereo not given) |
| 156 | O=C1Nc2ccc(Cl)cc2C(OCC2CC2)(C(F)(F)F)CN1C1CCC1 (stereo not given) |
| 189 to 190 | CCOC(=O)ON=C1Cc2ccccc2N(C(N)=O)c2ccccc21 |
| 295 to 305 | COc1ccc([C@H]2c3[nH]c4ccccc4c3C[C@H]3C(=O)NC(=O)N23)cc1 (relative stereo) |
| 84 to 86 | O=Cc1c(-c2ccccc2F)ccc2c1OCO2 |
| 185 to 186 | COc1ccc(C2=NN(c3cccc(C(=O)O)c3)C(=O)[C@H]3CC=CC[C@@H]23)cc1OC (relative stereo) |
| 207 to 210 | NC(=O)c1cc(NCc2ccc(Cl)cc2)c([N+](=O)[O-])cc1[N+](=O)[O-] |
| 164 | CC(C)c1cc(O)nc(-c2ccc(Cl)cc2)n1 |
